Results: the supplement of paper PMC10627819

Key:
S. pneumoniae D39V [1] = experiment: fitness (endpoint OD595 vs no drug) (fraction); higher = more growth
Procedure, shortened: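 Fitness expresses the optical density reached at the stationary-phase transition as a fraction of the robust mean of no-drug control wells. It is capped at 1. Measurements were OD595 every 30 min for 14 h at 37 °C after inoculation of 384-well plates at OD595 0.01 (30 µl, or 55 µl for S. pneumoniae), minus the first reading.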

B. subtilis 168 = experiment: Bliss interaction score (quartile over a dose matrix) (fitness difference); higher = more antagonism (negative = synergy)
Procedure, shortened: (§1)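 Values were capped at 1 after dividing OD595 at stationary-phase entry by the plate's robust no-drug mean. This ratio is fitness, and single-drug fitness was inferred from the combination data. The Bliss score is observed minus product-expected fitness, given as quartiles over technical, biological and donor/recipient replicates.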

S. aureus DSM 20231 = experiment: as above
Procedure, shortened: as §1

S. aureus Newman = experiment: as above
Procedure, shortened: as §1

S. pneumoniae D39V [2] = experiment: as above
Procedure, shortened: as §1
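Throughout, for Bliss interaction score (quartile over a dose matrix): first quartile when negative (synergy) and third quartile when positive (antagonism).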

CC[C@H]1OC(=O)[C@H](C)[C@@H](O[C@H]2C[C@@](C)(OC)[C@@H](O)[C@H](C)O2)[C@H](C)[C@@H](O[C@@H]2O[C@H](C)C[C@H](N(C)C)[C@H]2O)[C@](C)(OC)C[C@@H](C)C(=O)[C@H](C)[C@@H](O)[C@]1(C)O [Clarithromycin] + COc1c(N2C[C@@H]3CCCN[C@@H]3C2)c(F)cc2c(=O)c(C(=O)O)cn(C3CC3)c12 [Moxifloxacin]
fitness, S. pneumoniae D39V [1], one replicate
Conditions	first compound 0.007812 µg/mL	first compound 0.01562 µg/mL	first compound 0.03125 µg/mL
partner 0.0037 µg/mL	0.834	0.823	0.648
partner 0.0075 µg/mL	0.85	0.82	0.6
partner 0.015 µg/mL	0.818	0.765	0.572

fitness, S. pneumoniae D39V [1]
Conditions	partner 0.005 µg/mL	partner 0.01 µg/mL	partner 0.02 µg/mL	partner 0.0312 µg/mL	partner 0.0625 µg/mL	partner 0.125 µg/mL
first compound 0.0625 µg/mL	0.716	0.748	0.717	–	–	–
first compound 0.07 µg/mL	–	–	–	0.056	0.0339	0.0389
first compound 0.14 µg/mL	–	–	–	0.0451	0.0439	0.0343
first compound 0.25 µg/mL	0.217	0.235	0.238	–	–	–
first compound 0.28 µg/mL	–	–	–	0.0421	0.0312	0.0325

Conditions	Bliss interaction score
B. subtilis 168	0.0403
S. aureus DSM 20231	0.0891
S. aureus Newman	0.123
S. pneumoniae D39V [2]	0.0742

CC[C@H]1OC(=O)[C@H](C)[C@@H](O[C@H]2C[C@@](C)(OC)[C@@H](O)[C@H](C)O2)[C@H](C)[C@@H](O[C@@H]2O[C@H](C)C[C@H](N(C)C)[C@H]2O)[C@](C)(OC)C[C@@H](C)C(=O)[C@H](C)[C@@H](O)[C@]1(C)O [Clarithromycin] + COc1ccc(C[C@H](N)C(=O)N[C@H]2[C@@H](O)[C@H](n3cnc4c(N(C)C)ncnc43)O[C@@H]2CO)cc1 [Puromycin]
fitness, S. pneumoniae D39V [1], one replicate
Conditions	first compound 0.007812 µg/mL	first compound 0.01562 µg/mL	first compound 0.03125 µg/mL	first compound 0.0625 µg/mL	first compound 0.125 µg/mL	first compound 0.25 µg/mL
partner 1 µg/mL	0.947	0.867	0.676	0.419	0.138	0.112
partner 2 µg/mL	0.839	0.805	0.612	0.504	0.192	0.0762
partner 4 µg/mL	0.667	0.617	0.467	0.255	0.15	0.134

fitness, S. pneumoniae D39V [1]
Conditions	first compound 0.07 µg/mL	first compound 0.14 µg/mL	first compound 0.28 µg/mL
partner 1 µg/mL	0.131	0.0877	0.11
partner 2 µg/mL	0.125	0.096	0.0799
partner 4 µg/mL	0.12	0.122	0.0797

Conditions	Bliss interaction score
B. subtilis 168	0.0559
S. aureus DSM 20231	0.0616
S. aureus Newman	-0.0662
S. pneumoniae D39V [2]	-0.0827

CC[C@H]1OC(=O)[C@H](C)[C@@H](O[C@H]2C[C@@](C)(OC)[C@@H](O)[C@H](C)O2)[C@H](C)[C@@H](O[C@@H]2O[C@H](C)C[C@H](N(C)C)[C@H]2O)[C@](C)(OC)C[C@@H](C)C(=O)[C@H](C)[C@@H](O)[C@]1(C)O [Clarithromycin] + COc1cccc2c1C(=O)c1c(O)c3c(c(O)c1C2=O)C[C@@](O)(C(=O)CO)C[C@@H]3O[C@H]1C[C@H](N)[C@H](O)[C@H](C)O1 [Doxorubicin]
fitness, S. pneumoniae D39V [1], one replicate
Conditions	first compound 0.007812 µg/mL	first compound 0.01562 µg/mL	first compound 0.03125 µg/mL
partner 0.25 µg/mL	0.866	0.825	0.633
partner 0.5 µg/mL	0.841	0.798	0.621
partner 1 µg/mL	0.794	0.777	0.608

fitness, S. pneumoniae D39V [1]
Conditions	first compound 0.0625 µg/mL	first compound 0.07 µg/mL	first compound 0.125 µg/mL	first compound 0.14 µg/mL	first compound 0.25 µg/mL	first compound 0.28 µg/mL
partner 0.25 µg/mL	0.457	0.112	0.277	0.0456	0.077	0.0403
partner 0.5 µg/mL	0.495	0.106	0.295	0.0366	0.107	0.0281
partner 1 µg/mL	0.411	0.103	0.188	0.0523	0.0684	0.0955

Conditions	Bliss interaction score
B. subtilis 168	0.0718
S. aureus DSM 20231	0.0858
S. aureus Newman	0.105
S. pneumoniae D39V [2]	-0.0578

CC[C@H]1OC(=O)[C@H](C)[C@@H](O[C@H]2C[C@@](C)(OC)[C@@H](O)[C@H](C)O2)[C@H](C)[C@@H](O[C@@H]2O[C@H](C)C[C@H](N(C)C)[C@H]2O)[C@](C)(OC)C[C@@H](C)C(=O)[C@H](C)[C@@H](O)[C@]1(C)O [Clarithromycin] + C[C@@H]1O[C@@H]1P(=O)(O)O [Fosfomycin]
fitness, S. pneumoniae D39V [1], one replicate
Conditions	first compound 0.007812 µg/mL	first compound 0.01562 µg/mL	first compound 0.03125 µg/mL
partner 1.25 µg/mL	0.863	0.828	0.641
partner 2.5 µg/mL	0.775	0.804	0.634
partner 5 µg/mL	0.669	0.63	0.559

fitness, S. pneumoniae D39V [1]
Conditions	first compound 0.0625 µg/mL	first compound 0.07 µg/mL	first compound 0.125 µg/mL	first compound 0.14 µg/mL	first compound 0.25 µg/mL	first compound 0.28 µg/mL
partner 1.25 µg/mL	0.543	0.171	0.332	0.088	0.139	0.102
partner 2.5 µg/mL	0.538	0.102	0.323	0.0599	0.13	0.0306
partner 5 µg/mL	0.485	0.0461	0.288	0.057	0.132	0.0557

Conditions	Bliss interaction score
B. subtilis 168	0.0504
S. aureus DSM 20231	-0.0843
S. aureus Newman	-0.114
S. pneumoniae D39V [2]	0.0544
